Literature values in patent US20110086399A1, “RECOVERY OF STILBENOIDS” (FLUXOME SCIENCES A/S, priority 2008, published 2011).

Details: stated for comparison with the concentrations in the cell broth

For `Oc1cc(O)cc(/C=C/c2ccccc2)c1` [pinosylvin], the aqueous solubility is given as under 30 µg/mL.
